Where a name gives a salt, the structure may show the parent alone.
Assays:
[1] = tested on: human conjunctival epithelial cells (HCE); assay: Cell growth and vitality of HCE cells (trypan blue exclusion test and MTT assay); assay type: cell-based
Source text: In vitro tests on human conjunctival epithelial cells (HCE) for the experimental verification of the cytoprotective and antioxidant activity of beta caryophyllene (BCP) on the oxidative damage induced by anti-glaucoma medicines (AD). Characterization of the cytoprotective effects of beta-caryophyllene (BCP) on the human conjunctival epithelial cells exposed to oxidative and mitochondrial stress. This stress mimics the irritant and inflammatory action of hypotonizing ophthalmic medicines on the external structures of the human eye.
The HCE cells were exposed for 24 and 48 hours with increasing concentrations of BRIM (from 0.25 up to 4 mg/mL), DZL (from 0.086 up to 0.43%) and TFP (from 0.9 up to 30 µg/mL), alone and in combination with various concentrations of BCP (from 1.25 up to 40 µM), and the cell growth and vitality were evaluated respectively using the trypan blue exclusion test and the MTT assay. […] The IC50 ([…]) values for BRIM and DZL on their own are given respectively in the accompanying Figures 1 and 2. The in vitro interactions between BCP and BRIM or DZL, as illustrated in Figures 3A and B, were determined by the ÿE model of non-parametric response surface analysis. […] In particular, the most advantageous combinations were 10 µM BCP with 2 mg/ml BRIM and 2.5 µM BCP with 0.25% DZL. Of the combinations selected, only the combination 10 µM BCP and 2 mg/mL BRIM, which reflects the commercial formulation of the eye drops for treatment, was studied further. All the statistical comparisons were performed with respect to vCTR (vehicle control).

HCE cells [2] = assay: Apoptosis, cytofluorimetric analysis; assay type: cell-based, human; conditions: BRIM/BCP with respect to BRIM
Protocol: Figure 5 is a bar graph showing the percentage values of apoptotic cells (early and late) and necrotic cells in experimental groups exposed for 48 hours to BRIM and BCP.

HCE cells [3] = conditions: 48 hours of incubation
Protocol: The distribution of cell cycle phases is shown using PI dyeing and analyzed using flow cytometry. The bar charts show the percentage of cells in each phase and represent the average ± SE of the results of three independent experiments; one-way ANOVA followed by Bonferroni's t-test; *p<0.05 with respect to vCTR.
The cells were treated for 24 hours and 48 hours, and cytofluorimetric analyses of the cell cycle phase were performed for the distribution (Figure 4) and the apoptosis (Figure 5).

HCE cells [4] = conditions: 3 - 24 hours, any analyzed moment, JC-1 dye
Protocol: After the treatments, the ÿÿm was analyzed using JC-1 dye.
Measurements of mitochondrial activity, performed by means of experiments over time (3 - 24 hours), were evaluated by means of coloring with JC-1 dye.

HCE cells [5] = conditions: 24 hours, vs. vCTR
Protocol: After 24 hours of treatment, intracellular production of ROS was analyzed using DCHF-DA with respect to vCTR. The values shown represent the average ± SE of the results of three independent experiments; one-way ANOVA followed by the Holm-Šidák method; *p<0.05 with respect to vCTR; p<0.05 BRIM/BCP with respect to BRIM dyeing with fluorescent dye. The values express the intensity of the fluorescence (Arbitrary Units, AU) and represent the average ± SE of the results of three independent experiments; one-way ANOVA in the rows; *p<0.05 with respect to vCTR.

SMILES: C=C1CC/C=C(\C)CC[C@@H]2[C@@H]1CC2(C)C [BCP, (1R,4E,9S)-4,11,11-Trimethyl-8-methylidenebicyclo[7.2.0]undec-4-ene]
- protective effects of BCP in the cells treated with BRIM and DZL ([1]; HCE cells, 48 hours of incubation, BCP from 1.25 up to 40 µM): Significant protective effects
- most advantageous combination, BCP concentration with BRIM ([1]; with 2 mg/ml BRIM, non-parametric response surface analysis): 10 µM
- most advantageous combination, BCP concentration with DZL ([1]; with 0.25% DZL, non-parametric response surface analysis): 2.5 µM
- early apoptosis reduced (apoptosis induced by BRIM) (HCE cells [2]; 24 and 48 hours): approximately 35%
- late apoptosis decrease (apoptosis induced by BRIM) (HCE cells [2]; 48 hours): approximately 15%

SMILES: Brc1c(NC2=NCCN2)ccc2nccnc12 [BRIM, Brimonidine tartrate]
- S phase (HCE cells [3]): significant decreases
- percentage of cells in the G2/M phase (HCE cells [3]; vehicle control 12%, 2 mg/mL BRIM, 10 µM BCP): 33.73%
- mitochondrial membrane potential (ÿÿm) (HCE cells [4]): marked mitochondrial depolarization
- increase in ROS production (HCE cells [5]): approximately 30%

SMILES: CC(C)OC(=O)CCC/C=C\C[C@@H]1[C@@H](/C=C/C(F)(F)COc2ccccc2)[C@H](O)C[C@@H]1O [TFP, tafluprost]
- cytotoxic effects ([1]; HCE cells, 24 and 48 hours, up to concentrations of 30 µg/mL): no cytotoxic effects

Reference: patent EP4652992A1, “OPHTHALMIC COMPOSITION FOR PREVENTING AND TREATING CONJUNCTIVA EPITHELIUM DAMAGE AND ASSOCIATED DISCOMFORT CAUSED BY HYPOTONIZING FORMULATIONS” (FB Vision S.p.A., priority 2024, dated 2025)
